In paper PMC5561493 (Journal of Clinical Pharmacology, 2017):
Where “and” joins values, the source holds several entries; their conditions need not be identical. Equal entries are not always repeated. Where two headings read alike, the source gives them in different places.

Key:
[1] = Population PK analysis of bortezomib in pediatric ALL/AML patients; assay type: in vivo, human; conditions: for half-life: human, plasma, intravenous, 1.3 mg/m^2, half-life, geometric mean (%CV)
[2] = adult patients, cited from earlier work
[3] = 1.6 mg/m^2 dose level; cited from earlier work
[4] = system: blood 20S proteasome activity; conditions: 1.2 and 1.6 mg/m^2 IV; cited from earlier work
[5] = 1.7 mg/m^2 dose level; cited from earlier work
[6] = system: CYP3A; conditions: coadministration of ketoconazole; cited from earlier work
[7] = system: CYP2C19; conditions: cited from earlier work
[8] = varying grades of renal impairment; cited from earlier work
[9] = in vitro transport studies; ref Takeda, data on file; cited from earlier work
[10] = system: efflux pumps; conditions: in vitro transport studies; ref Takeda, data on file; cited from earlier work
[11] = system: cytochrome P450 enzymes; conditions: in decreasing order of relative contributions; cited from earlier work
[12] = final population PK model, bootstrap, 1.3 mg/m^2 IV repeat dose

clearance, geometric mean (%CV) ([1]; all patients (N = 104), 2-16 y, individual estimates, 1.3 mg/m^2 IV repeat dose): 7.79 (25%) L/(h·m^2) | volume of distribution at steady-state, geometric mean (%CV) ([1]; all patients (N = 104), sum of V1, V2, V3): 834 (39%) L/m^2 | Interindividual variability (CV) of CL ([1]; base model): 41.2% | Interindividual variability (CV) of Q3 ([1]; base model): 38.3% | Interindividual variability (CV) of V1 ([1]; base model): 50.7% | Interindividual variance of CL ([1]; final model): 29.7 %CV | Interindividual variance of Q3 ([1]; final model): 29.8 %CV | Interindividual variance of V1 ([1]; final model): 34.6 %CV | V1 (central volume), population median [1, 12]: 10.0 L | V2 (peripheral volume 1), population median [1, 12]: 32.5 L | V3 (peripheral volume 2), population median [1, 12]: 975 L | BSA effect on Q3 (exponent) ([1]; final population PK model, power model): 0.75 | half-life ([1]; α disposition phase, all patients (N = 104)): 0.103 h | half-life ([1]; β disposition phase, all patients (N = 104)): 1.58 h | half-life ([1]; γ (terminal/elimination) disposition phase, all patients (N = 104)): 100 h | BSA-normalized clearance, mean (%CV) ([1]; patients 2 to 11 years old (N = 62)): 8.11 (25%) L/(h·m^2) and 8.11 L/(h·m^2) | BSA-normalized clearance, mean (%CV) ([1]; patients aged 12 to 16 years (N = 42)): 7.94 (25%) L/(h·m^2) and 7.94 L/(h·m^2)
Compound: CC(C)C[C@H](NC(=O)[C@H](Cc1ccccc1)NC(=O)c1cnccn1)B(O)O [bortezomib]
BSA-normalized clearance, mean (%CV) ([2]; 1.0 mg/m^2 dose): 12.9 (70%) L/(h·m^2) | BSA-normalized clearance, mean (%CV) ([2]; 1.3 mg/m^2 dose): 14.9 (63%) L/(h·m^2) | dose-limiting toxicities [3]: 2 dose‐limiting toxicities of thrombocytopenia | inhibition of blood 20S proteasome activity [4]: Dose‐dependent inhibition | time of maximal inhibition of blood 20S proteasome activity after dosing [4]: ≤ 1 h | dose-limiting toxicities [5]: Two dose‐limiting toxicities (grade 3 confusion and grade 4 hypotension with fever) | increase in bortezomib area under the concentration-time curve [6]: 35% | effect of omeprazole coadministration on bortezomib PK [7]: did not alter bortezomib PK | effect of renal impairment on bortezomib clearance [8]: did not alter bortezomib clearance | apparent permeability [9]: high apparent permeability | substrate for efflux pumps [10]: not a substrate for efflux pumps | CYP enzymes mediating hepatic microsomal metabolism [11]: primary involvement of CYPs 3A4, 2C19, and 1A2
